Laboratory results: the CheMixHub ionic liquid set
± gives the uncertainty stated by the source.

Test: xn = mol fraction of the nth substance listed

Question: What does the source list for `C[C@H](N)C(=O)O` + CCCCCCCCCCCC[N+](C)(C)Cc1ccccc1.[Cl-] + O?
Answer: electrical conductivity (293.15 K, 101 kPa, x1 = 0.000902, x2 = 0): 0.0002 ± 1.2e-05 S/m; electrical conductivity (293.15 K, 101 kPa, x1 = 0.001774, x2 = 0): 0.000272 ± 1.7e-05 S/m; electrical conductivity (298.15 K, 101 kPa, x1 = 0.000902, x2 = 0): 0.000236 ± 1.4e-05 S/m; electrical conductivity (298.15 K, 101 kPa, x1 = 0.001774, x2 = 0): 0.000323 ± 2e-05 S/m; electrical conductivity (303.15 K, 101 kPa, x1 = 0.000902, x2 = 0): 0.000271 ± 1.6e-05 S/m; electrical conductivity (303.15 K, 101 kPa, x1 = 0.001774, x2 = 0): 0.000378 ± 2.3e-05 S/m; electrical conductivity (308.15 K, 101 kPa, x1 = 0.000902, x2 = 0): 0.00031 ± 1.9e-05 S/m; electrical conductivity (308.15 K, 101 kPa, x1 = 0.001774, x2 = 0): 0.000442 ± 2.7e-05 S/m; electrical conductivity (313.15 K, 101 kPa, x1 = 0.000902, x2 = 0): 0.000356 ± 2.2e-05 S/m; electrical conductivity (313.15 K, 101 kPa, x1 = 0.001774, x2 = 0): 0.000511 ± 3.1e-05 S/m

Question: For `NCC(=O)NCC(=O)O` + CCCCCCCCCCCC[N+](C)(C)Cc1ccccc1.[Cl-] + O, which electrical conductivity (293.15 K, 101 kPa, x1 = 0.0008948, x2 = 0) is on record?
Answer: 0.00137 ± 8.4e-05 S/m

Question: And the electrical conductivity (298.15 K, 101 kPa, x1 = 0.0008948, x2 = 0)?
Answer: 0.00165 ± 0.0001 S/m

Question: And the electrical conductivity (303.15 K, 101 kPa, x1 = 0.0008948, x2 = 0)?
Answer: 0.00198 ± 0.00012 S/m

Question: And the electrical conductivity (308.15 K, 101 kPa, x1 = 0.0008948, x2 = 0)?
Answer: 0.00239 ± 0.00015 S/m

Question: And the electrical conductivity (313.15 K, 101 kPa, x1 = 0.0008948, x2 = 0)?
Answer: 0.00284 ± 0.00017 S/m

Question: What does the source list for `CC(C)[C@H]1CC[C@H](C)C[C@@H]1O` + CCCCCCCC[N+](CCCCCCCC)(CCCCCCCC)CCCCCCCC.[Br-] + [Cl-].[Cl-].[Co+2]?
Answer: viscosity (296.1 K, 101.3 kPa, x2 = 0.2857, x3 = 0.1429): 11900 ± 4200 mPa·s; viscosity (296.1 K, 101.3 kPa, x2 = 0.4, x3 = 0.2): 22000 ± 10000 mPa·s; viscosity (296.1 K, 101.3 kPa, x2 = 0.4286, x3 = 0.1429): 17800 ± 7500 mPa·s

Question: Which results are given for `CCCCCC[n+]1ccn(C)c1.c1nnn[n-]1` + CCCCCCCC[P+](CC)(CC)CC.O=S(=O)([N-]S(=O)(=O)C(F)(F)F)C(F)(F)F?
Answer: viscosity (278.15 K, 100 kPa, x2 = 0.301): 990 ± 130 mPa·s; viscosity (283.15 K, 100 kPa, x2 = 0.597): 409 ± 52 mPa·s; viscosity (283.15 K, 100 kPa, x2 = 0.697): 347 ± 44 mPa·s; viscosity (288.15 K, 100 kPa, x2 = 0.4): 414 ± 53 mPa·s; viscosity (298.15 K, 100 kPa, x2 = 0.597): 156 ± 19 mPa·s; viscosity (303.15 K, 100 kPa, x2 = 0.4): 156 ± 19 mPa·s; viscosity (303.15 K, 100 kPa, x2 = 0.5): 129 ± 16 mPa·s; viscosity (303.15 K, 100 kPa, x2 = 0.899): 90 ± 11 mPa·s; viscosity (308.15 K, 100 kPa, x2 = 0.5): 100 ± 12 mPa·s; viscosity (308.15 K, 100 kPa, x2 = 0.597): 93 ± 11 mPa·s; viscosity (308.15 K, 100 kPa, x2 = 0.697): 82 ± 10 mPa·s; viscosity (313.15 K, 100 kPa, x2 = 0.697): 66 ± 8 mPa·s; viscosity (318.15 K, 100 kPa, x2 = 0.301): 77 ± 9 mPa·s; viscosity (318.15 K, 100 kPa, x2 = 0.4): 74 ± 9 mPa·s; viscosity (318.15 K, 100 kPa, x2 = 0.597): 61 ± 7 mPa·s; viscosity (323.15 K, 100 kPa, x2 = 0.1): 86 ± 11 mPa·s; viscosity (323.15 K, 100 kPa, x2 = 0.5): 52 ± 6 mPa·s

Question: Which results are given for `O` + CCCCCCCC[n+]1ccc(C)cc1.[Br-]?
Answer: electrical conductivity (288.15 K, 100 kPa, frequency 0.003 MHz, x2 = 0): 0.0001 S/m; electrical conductivity (308.15 K, 100 kPa, frequency 0.003 MHz, x2 = 0): 0.00022 S/m

Question: With `CC1COC(=O)O1` (centres undefined) + CCCCCCCCn1cc[n+](C)c1.F[B-](F)(F)F as the molecule, how does the viscosity (323.15 K, 99.7 kPa, x1 = 1) read?
Answer: 1.77 ± 0.25 mPa·s

Question: For `CCCCCCCCCC[n+]1ccn(C)c1.F[B-](F)(F)F` + CCCCCCCCn1cc[n+](C)c1.[Br-] + O, which electrical conductivity (298.15 K, 101 kPa, x2 = 0.0007563, x1 = 0.0001261) is on record?
Answer: 0.4 ± 0.01 S/m

Question: And the electrical conductivity (298.15 K, 101 kPa, x2 = 0.001655, x1 = 0.0002882)?
Answer: 0.71 ± 0.02 S/m

Question: What about the electrical conductivity (298.15 K, 101 kPa, x2 = 0.00196, x1 = 0.0003423) of the same molecule?
Answer: 0.81 ± 0.02 S/m

Question: And the electrical conductivity (298.15 K, 101 kPa, x2 = 0.002283, x1 = 0.0003963)?
Answer: 0.87 ± 0.02 S/m

Question: And the electrical conductivity (298.15 K, 101 kPa, x2 = 0.002552, x1 = 0.0004503)?
Answer: 0.94 ± 0.02 S/m

Question: And the electrical conductivity (298.15 K, 101 kPa, x2 = 0.002857, x1 = 0.0005043)?
Answer: 0.99 ± 0.02 S/m

Question: What about the electrical conductivity (298.15 K, 101 kPa, x2 = 0.003126, x1 = 0.0005583) of the same molecule?
Answer: 1.04 ± 0.02 S/m

Question: What about the electrical conductivity (298.15 K, 101 kPa, x2 = 0.003341, x1 = 0.0005943) of the same molecule?
Answer: 1.09 ± 0.02 S/m

Question: And the electrical conductivity (298.15 K, 101 kPa, x2 = 0.003645, x1 = 0.0006483)?
Answer: 1.14 ± 0.02 S/m

Question: And the electrical conductivity (298.15 K, 101 kPa, x2 = 0.003877, x1 = 0.0006843)?
Answer: 1.18 ± 0.02 S/m

Question: What about the electrical conductivity (298.15 K, 101 kPa, x2 = 0.004253, x1 = 0.0007563) of the same molecule?
Answer: 1.23 ± 0.03 S/m

Question: And the electrical conductivity (298.15 K, 101 kPa, x2 = 0.004574, x1 = 0.0008102)?
Answer: 1.28 ± 0.03 S/m

Question: And the electrical conductivity (298.15 K, 101 kPa, x2 = 0.004788, x1 = 0.0008462)?
Answer: 1.31 ± 0.03 S/m

Question: What about the electrical conductivity (298.15 K, 101 kPa, x2 = 0.005092, x1 = 0.0009002) of the same molecule?
Answer: 1.35 ± 0.03 S/m

Question: And the electrical conductivity (298.15 K, 101 kPa, x2 = 0.005359, x1 = 0.0009541)?
Answer: 1.4 ± 0.03 S/m

Question: What about the electrical conductivity (298.15 K, 101 kPa, x2 = 0.005626, x1 = 0.001008) of the same molecule?
Answer: 1.43 ± 0.03 S/m
